# Reference: patent US10383338B2, “Compositions and methods for making and using hydrolytic enzymes for degrading polysaccharides made by foodborne pathogenic bacteria” (University of Wyoming, priority 2014, dated 2019)
# Where two headings read alike, the source gives them in different places.
# Key:
# L. monocytogenes = assay type: cell-based; settings: 1600 ppm, 10 min, room temperature; for killing of wild-type strain EGD-e: HTM-grown culture
# Method: Here, the role of L. monocytogenes EPS in providing tolerance to disinfection and desiccation was evaluated. […] To distinguish between the contribution of EPS versus EPS-independent c-di-GMP-responsive agents, included in the tests were the ΔpdeB/C/D ΔpssC mutant characterized by elevated intracellular c-di-GMP levels but defective in EPS production.
# Cultures were grown in HTM with 3% glucose at 37° C. for 24 h, at which point small uniform clumps are formed by the ΔpdeB/C/D strain. Aliquots (250 μl; 10^8 cfu/ml) of these cultures were mixed with disinfectants at 1:1 vol ratios in small glass tubes that also contained 0.1 g of acid washed glass beads (Sigma Life Sciences). Following a 10-min exposure to disinfectants at room temperature, D/E neutralizing broth (500 μl; Difco) was added. Samples were vigorously vortexed (for 5 min) and clumps of the ΔpdeB/C/D strain were dispersed due to the action of the glass beads. Serial dilutions were plated on BHI agar and colonies were counted following a 48-h incubation at 37° C.
# [1] = system: wild-type L. monocytogenes EGD-e; test: Disinfection tolerance, wild-type strain; assay type: cell-based, Listeria monocytogenes; settings: sodium hypochlorite 1600 ppm, 10 min, room temperature; HTM-grown cultures
# Method: FIGS. 6A-6D: Role of the c-di-GMP-induced EPS in biofilm formation, cell aggregation, and tolerance of L. monocytogenes to disinfectants and desiccation. […] Cultures were grown for 6 days at 30° C. in LB (top panel) or LB supplemented with 3% glycerol (bottom panel). Shown are average results from two biological replicates, where each strain was grown in six wells in a replicate (i.e., six technical replicates). Black circle, wild type; red square, ΔpdeB/C/D; green triangle, ΔpdeB/C/D ΔpssC; blue cross, ΔpdeB/C/D ΔpssE. […] Overnight cultures grown in BHI were inoculated into HTM liquid medium at A600 of 0.01 and incubated at 30° C. with gentle shaking (rotary shaker, 125 rpm) for 48 h. 1, ΔpdeB/C/D; 2, wild type; 3, ΔpdeB/C/D ΔpssC; 4, ΔpdeB/C/D ΔpssE. […] Aliquots of the HTM-grown cultures were mixed with disinfectant solutions for 10 min at room temperature. […]
# EPS is known to protect bacteria from environmental insults. Here, the role of L. monocytogenes EPS in providing tolerance to disinfection and desiccation was evaluated. […]
# Solutions of sodium hypochlorite, hydrogen peroxide, and benzalkonium chloride (Sigma-Aldrich and Sigma Life Sciences) were prepared in sterile phosphate-buffered saline with disinfection concentrations of 1600 ppm, 200 mM, and 100 ppm, respectively. […] Serial dilutions were plated on BHI agar and colonies were counted following a 48-h incubation at 37° C.
structure (smiles),measurement,setting,value
OCl [sodium hypochlorite],survival of EPS producing ΔpdeB/C/D mutant relative to wild type,L. monocytogenes,> 10^6 fold
same,killing of wild-type strain EGD-e,L. monocytogenes,highly effective in killing the wild-type strain
same,killing of wild-type strain EGD-e,L. monocytogenes; listed as SH,lack of survivors
same,killing / survivors after disinfectant treatment,[1],highly effective in killing
